Experimental data as given in the NIST ThermoML archive (doi:10.1021/je049657g).
Numbers after ± are expanded uncertainties.

Conditions: 298.15 K, Liquid; for viscosity: 101 kPa, Capillary tube (Ostwald / Ubbelohde) method; for mass density: 101.33 kPa

| Structure (SMILES) | viscosity | mass density |
| --- | --- | --- |
| O=C1CCCN1 [2-pyrrolidinone] | 13.19 ± 0.17 mPa·s | 1106.82 ± 2 kg/m3 |
| CC(=O)N(C)C [N,N-dimethylethanamide] | 0.944 ± 0.008 mPa·s | 936.54 ± 1.4 kg/m3 |
| CN1CCCC1=O [N-methylpyrrolidone] | 1.672 ± 0.014 mPa·s | 1027.91 ± 1.6 kg/m3 |
| CN(C)C=O [dimethylformamide] | 0.804 ± 0.007 mPa·s | 943.65 ± 1.5 kg/m3 |
